The values below come from US20130197043A1, “USE OF THE FETAL REPROGRAMMING OF A PPAR AGONIST” (SNU R&DB FOUNDATION, priority 2010, published 2013).

For orientation: EC50 means the concentration that produces a half-maximal response. Read a high EC50 as lower potency in that assay.

One test addresses T1, hPPAR δ (Homo sapiens, UniProt Q03181).
T1 construct: expressed in transfected cells; host or cells: CV-1 cells
T1 sequence (Q03181 1-441): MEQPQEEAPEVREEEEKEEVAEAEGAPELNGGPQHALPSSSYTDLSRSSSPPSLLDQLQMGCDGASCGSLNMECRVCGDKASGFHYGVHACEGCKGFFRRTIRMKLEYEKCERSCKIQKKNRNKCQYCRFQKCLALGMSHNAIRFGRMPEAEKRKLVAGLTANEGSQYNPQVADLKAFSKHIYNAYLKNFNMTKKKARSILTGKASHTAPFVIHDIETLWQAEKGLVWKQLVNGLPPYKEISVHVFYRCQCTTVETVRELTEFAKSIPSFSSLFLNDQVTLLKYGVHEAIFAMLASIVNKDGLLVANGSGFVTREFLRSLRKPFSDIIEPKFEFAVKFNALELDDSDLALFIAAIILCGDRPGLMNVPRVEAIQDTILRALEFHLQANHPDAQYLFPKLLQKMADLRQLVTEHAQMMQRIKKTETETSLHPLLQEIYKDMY
As to the kind of experiment: Transfection assay in CV-1 cells, hPPAR δ. The format is cell-based. As to conditions: luciferase reporter. The procedure: (§1) This assay was conducted by using CV-1 cells. The cells were cultured on a 96-well plate with a DMEM medium containing 10% FBS, DBS (delipidated), and 1% penicillin/streptomycin in 37° C. of an incubator 5% of carbon dioxide. Test was conducted in four stages of cell inoculation, transfection, treatment with the developed material, and result confirmation. The CV-1 cells were inoculated on the 96-well plate at a cell density at 5,000 cells/well, and after 24 hours, transfection was performed. PPARs plasmid DNA, reporter DNA, and β-galactosidase DNA were mixed with a transfection reagent, and then used to treat the cells. The developed material was dissolved in dimethylsulfoxide (DMSO), and then was used to treat the cells by using media at various concentrations. After 24 hours of culturing in an incubator, the cells were lysed with a lysis buffer and luciferase activity and β-galactosidase activity were measured using a luminometer and a microplate reader. The measured luciferase value was calibrated with the β-galactosidase value, and this value was depicted on a graph and EC50 was determined.

The target of a further test is T2, hPPARa (Homo sapiens, UniProt Q07869).
T2 construct: expressed in transfected cells; host or cells: CV-1 cells
T2 sequence (Q07869 1-468): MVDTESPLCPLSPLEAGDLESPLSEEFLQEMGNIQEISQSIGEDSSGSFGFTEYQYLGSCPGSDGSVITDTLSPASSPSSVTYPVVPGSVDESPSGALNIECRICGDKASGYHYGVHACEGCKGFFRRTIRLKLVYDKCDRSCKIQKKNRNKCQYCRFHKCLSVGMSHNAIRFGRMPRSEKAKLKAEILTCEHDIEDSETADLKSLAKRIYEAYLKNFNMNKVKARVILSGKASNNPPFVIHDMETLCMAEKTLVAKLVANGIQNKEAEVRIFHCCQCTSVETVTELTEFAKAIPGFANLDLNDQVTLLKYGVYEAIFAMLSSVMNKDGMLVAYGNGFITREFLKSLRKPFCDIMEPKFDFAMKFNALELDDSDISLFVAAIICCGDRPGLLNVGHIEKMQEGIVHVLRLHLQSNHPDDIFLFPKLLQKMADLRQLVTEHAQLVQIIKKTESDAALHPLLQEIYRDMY
In words: Transfection assay in CV-1 cells, hPPARa. The format is cell-based. As to conditions: luciferase reporter. The protocol:
as §1
In general terms: In a reporter assay the amount or activity of a reporter protein is the signal.

Another test concerns the target T3, hPPARg (Homo sapiens, UniProt P37231).
T3 construct: expressed in transfected cells; host or cells: CV-1 cells
T3 sequence (P37231 1-505): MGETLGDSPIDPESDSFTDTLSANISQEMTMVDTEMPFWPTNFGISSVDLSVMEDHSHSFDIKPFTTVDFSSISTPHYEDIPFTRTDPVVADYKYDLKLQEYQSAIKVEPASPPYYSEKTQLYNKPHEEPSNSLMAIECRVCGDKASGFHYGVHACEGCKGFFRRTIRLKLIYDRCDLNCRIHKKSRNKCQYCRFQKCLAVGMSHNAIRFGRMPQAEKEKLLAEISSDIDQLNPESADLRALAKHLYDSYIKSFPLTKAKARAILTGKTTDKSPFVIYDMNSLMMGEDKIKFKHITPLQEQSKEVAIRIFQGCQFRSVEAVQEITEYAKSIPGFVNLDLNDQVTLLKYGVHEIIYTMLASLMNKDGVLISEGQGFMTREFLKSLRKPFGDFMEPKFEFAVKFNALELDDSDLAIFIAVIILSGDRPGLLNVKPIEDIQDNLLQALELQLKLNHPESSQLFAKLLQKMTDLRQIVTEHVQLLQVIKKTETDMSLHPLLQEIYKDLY
In words: Transfection assay in CV-1 cells, hPPARg. The format is cell-based. As to conditions: luciferase reporter. The protocol: as §1

For test [1], the system named is slow muscle fibers and endurance. As to conditions: cited from earlier work.
In test [2] the test system is mice subjected to fetal reprogramming. As to the kind of experiment: Treadmill endurance test of mice subjected to fetal reprogramming. It is filed as in vivo. The protocol: Before the experiment, mice were exercised for 5 minutes at a speed of 7 meters/min for two days so as to be adapted to exercising equipment. On day 3, the main experiment was conducted. As for the method for experiment, the mice were made to run at a speed of 10 meter/min for 60 minutes, and after that, the speed was increased at 1 meter/min once every 15 minutes until the maximum speed reaches 15 meters/min. As for the male mice, the running time was increased by 2.9 fold ([…], P<0.0001, n=6) and the running distance was increased by 3.0 fold (9927±1168 versus 3303±394 m, P<0.0001) in the PPAR δ agonist (CMDD1111)-administered mouse group than the control mouse group.
The Experiment using pregnant C57BL/6 mice was conducted in order to verify an endurance enhancement effect by fetal reprogramming of CMDD1226. […]
The experiment for verifying the fetal reprogramming effect of GW501516 and determining the optimum administration period thereof was conducted. The experiment method was shown in FIG. 1, and the experiment was conducted with respect to three kinds of administration periods (gestation period, lactation period, and both of gestation and lactation periods). As the experiment result, the group administered with PPAR δ agonist only during the gestation period had 2.6-fold and 3.2-fold increases in the running time and the running distance, respectively, and the group administered with PPAR δ agonist only during the lactation period had 2.4-fold and 3.0-fold increases in the running time and the running distance, respectively, as compared with the control group. The group administered with PPAR δ agonist during both the gestation and lactation periods had the most obvious increase in endurance, and had 5.1-fold and 6.6-fold increases as compared with the control group (FIG. 22).
The animal test was conducted in order to verify the muscle endurance enhancement and muscular function improvement effects of the material according to the present invention. […] […] The test using a treadmill was conducted in order to confirm the effect of this muscular fiber change on muscle endurance enhancement and muscular function improvement.

The next test deals with HDL in serum. In words: High-density lipoprotein cholesterol (HDL) in serum. It is filed as in vivo. As to conditions: mice fed 10% fat feedstuff over 6 weeks. An excerpt: High-density lipoprotein cholesterol (HDL) has been known to play an important role in treating lipid metabolic disorders such as arteriosclerosis and hyperlipidemia while lowering the cholesterol level of an epidermal cell and mitigating an inflammatory reaction. Serum was separated from the mice fed over a 6-week period of feedstuff containing 10% fat in order to confirm the high-density cholesterol increase effect of Compounds 5 and 9, which were the developed materials of the present invention.

[3] abbreviates: administered during both gestation and lactation periods.
The mark [4] stands for this setting: administered only during the gestation period.
The mark [5] stands for this setting: administered only during the lactation period.
[6] abbreviates: C57BL/6, maternal 10 mg/kg/day gestation and lactation, 7-week old.

On to `Cc1cc(SC(Cc2ccc(-c3ccc(C(F)(F)F)cc3)cc2)c2sc(-c3ccc(C(F)(F)F)cc3)nc2C)ccc1OCC(=O)O` (stereo not drawn) [Compound 17], for which the EC50 at hPPAR δ worked out at 6.4 nM. Besides, the “EC50 hPPARa” value on hPPARa is recorded as “ia”. Moreover, on hPPARg, the “EC50 hPPARg” value was “ia”.

`Cc1cc(SC(Cc2ccc(-c3ccc(C(F)(F)F)cc3)nc2)c2sc(-c3ccc(C(F)(F)F)cc3)nc2C)ccc1OCC(=O)O` (stereo not drawn) [Compound 21] returned an EC50 at hPPAR δ of 10.6 nM. Also, the “EC50 hPPARa” value on hPPARa is “ia”. Besides, the “EC50 hPPARg” value on hPPARg is “ia”.

With `Cc1cc(SCc2sc(-c3ccc(C(F)(F)F)cc3)nc2C)ccc1OCC(=O)O` [GW501516, reference compound], the “improvement in slow muscle fibers and endurance” value in test [1] (administration alone to an adult) is recorded as “did not show improvement”. In test [1] (simultaneous combination of exercise and administration), the “slow muscle fibers and endurance” value is “generated slow muscle fibers and enhanced endurance”. For the same compound, the “increase in the running distance versus control” value in test [2] (setting [3]) is listed as 6.6 fold; in test [2] (setting [4]), 3.2 fold; in test [2] (setting [5]), 3.0 fold. The figures for the “increase in the running time versus control” value in test [2] (setting [3]), in test [2] (setting [4]) and in test [2] (setting [5]) were 5.1 fold, 2.6 fold and 2.4 fold, respectively. The “HDL increase in serum” value in the test with HDL in serum came to 29%.

With `Cc1cc(SC(Cc2cc(-c3ccc(F)cc3)no2)c2sc(-c3ccc(C(F)(F)F)cc3)nc2C)ccc1OCC(=O)O` (stereo not drawn) [Compound 33], the 50% effective concentration (EC50) on hPPAR δ was 41.4 nM. Besides, at hPPARa, the “EC50 hPPARa” value was “ia”. Moreover, the “EC50 hPPARg” value at hPPARg was “ia”.

On to `Cc1cc([Se]C(Cc2ccccc2)c2sc(-c3ccc(C(F)(F)F)cc3)nc2C)ccc1OCC(=O)O` (stereo not drawn) [CMDD1226], for which, in test [2] (setting [6]), the “increase in the running distance versus control” value was 2.0 fold and the “increase in the running time versus control” value was determined as 1.9 fold.

In the case of `CCOC(=O)COc1ccc(SC(Cc2ccc(-c3ccc(F)c(Cl)c3)cc2)c2sc(-c3ccc(C(F)(F)F)cc3)nc2C)cc1C` (stereo not drawn) [Compound 28], a half-maximal effect on hPPAR δ (EC50) was put at 4.6 nM. On hPPARa, the “EC50 hPPARa” value is given as “ia”. The “EC50 hPPARg” value on hPPARg is on record as “ia”.

`Cc1cc(SC(Cc2ccc(-c3cc(F)c(F)c(F)c3)cc2)c2sc(-c3ccc(C(F)(F)F)cc3)nc2C)ccc1OCC(=O)O` (stereo not drawn) [Compound 13]: on hPPAR δ, the EC50 stood at 8.8 nM. Besides, the “EC50 hPPARa” value on hPPARa was “ia”. In addition, the “EC50 hPPARg” value at hPPARg is reported as “ia”.

Take `Cc1cc(SC(Cc2c(F)cccc2Cl)c2sc(-c3ccc(C(F)(F)F)cc3)nc2C)ccc1OCC(=O)O` (stereo not drawn) [CMDD1112]: the endurance enhancement effect entry in test [2] (1 mg/kg/day) was “not exhibited”. In addition, the endurance enhancement effect result in test [2] (2 mg/kg/day) is “not exhibited”. Besides, in test [2] (5 mg/kg/day), the running distance enhancement is recorded as 1.5 fold and the running time enhancement is recorded as 1.4 fold.

On to `Cc1cc(SC(Cc2ccc(-c3cccc(C(F)(F)F)c3)cc2)c2sc(-c3ccc(C(F)(F)F)cc3)nc2C)ccc1OCC(=O)O` (stereo not drawn) [Compound 25], for which it took 6.1 nM to reach a half-maximal effect on hPPAR δ (EC50). Moreover, at hPPARa, the “EC50 hPPARa” value is on record as “ia”. In addition, on hPPARg, the “EC50 hPPARg” value is on record as “ia”.
